Measurements from patent US9296698B2, “Amino heteroaryl compounds as beta-secretase modulators and methods of use” (Amgen Inc., priority 2009, dated 2016).
Like-named read-outs stand apart in the source and are kept apart here.

Key:
[1] = molecular target: BACE 1 (Beta Secretase enzyme) (Homo sapiens, UniProt P56817); experiment: In vitro enzymatic BACE FRET assay; format: biochemical; set-up: BACE 1 FRET assay (uM): scale not given here
Protocol: In Vitro Enzymatic BACE FRET (Fluorescence Resonance Energy Transfer) Assay (Enzyme Assay Data in Table 1)
The assay buffer used in this screen is 0.05 M acetate, pH 4.2, 10% DMSO final, 100 uM genapol (which is a nonionic detergent, below its Critical Micelle Concentration). […] The assay is effectively started by the addition of FRET substrate (50 nM) and the combination is incubated for one hour. The FRET assay is terminated with by addition of Tris buffer, which raises the pH to neutrality, and the fluorescence is determined. The FRET substrate is a peptide with commercially available fluorophore and quencher, on opposite sides of the BACE cleavage site.

[2] = test system: Aβ40 in conditioned medium of cells stably expressing Amyloid Precursor Protein (APP); experiment: In vitro BACE cell-based assay (HEK cell assay), Aβ40 sandwich ELISA
Protocol: In Vitro BACE Cell-Based Assay:
The cell-based assay measures inhibition or reduction of Aβ40 in conditioned medium of test compound treated cells expressing amyloid precursor protein.
Cells stably expressing Amyloid Precursor Protein (APP) were plated at a density of 40K cells/well in 96 well plates (Costar). The cells were cultivated for 24 hours at 37° C. and 5% CO2 in DMEM supplemented with 10% FBS. The test compounds were then added to cells in 10-point dose response concentrations with the starting concentration being either 100 μM or 10 μM. The compounds were diluted from stock solutions in DMSO and the final DMSO concentration of the test compounds on cells was 0.1%. After 24 h of incubation with the test compounds the supernatant conditioned media was collected and the Aβ 40 levels were determined using a sandwich ELISA. The IC50 of the compound was calculated from the percent of control or percent inhibition of Aβ 40 as a function of the concentration of the test compound.
The sandwich ELISA to detect Aβ 40 was performed in 96 well microtiter plates, which were pre-treated with goat anti-rabbit IgG (Pierce). The capture and detecting antibody pair that were used to detect Aβ 40 from cell supernatants were affinity purified pAb40 (Biosource) and biotinylated 6E10 (Signet Labs Inc.), respectively. The optimal concentration for the pAb40 antibody was 3 μg/ml in Superblock/TBS (Pierce) that was supplemented with 0.05% Tween 20 (Sigma).
Cellular supernatants were incubated with the capture antibody for 3 h at 4° C., followed by 3 wash steps in TBS-tween (0.05%). The detecting antibody incubation was for 2 h at 4° C., again followed by the wash steps as described previously. The final readout of the ELISA is Time-Resolved Fluorescence (counts per minute) using Delfia reagents Streptavidin-Europium and Enhancement solutions (Perkin Elmer) and the Victor 2 multilabel counter (Perkin Elmer).

[3] = IC50 range symbols, Table 1, read-out: BACE 1 FRET assay
[4] = Homo sapiens, HEK293, 24 h, IC50 range symbols, Table 1, Aβ40, 24 h incubation, read-out: HEK cell assay
[5] = IC50 range symbols, Table 1, Aβ40, 24 h incubation, read-out: HEK cell assay
[6] = bound stated, read-out: IC50 value in the FRET BACE enzyme assay

Chain of BACE 1 (Beta Secretase enzyme) (P56817 46-501, species assumed): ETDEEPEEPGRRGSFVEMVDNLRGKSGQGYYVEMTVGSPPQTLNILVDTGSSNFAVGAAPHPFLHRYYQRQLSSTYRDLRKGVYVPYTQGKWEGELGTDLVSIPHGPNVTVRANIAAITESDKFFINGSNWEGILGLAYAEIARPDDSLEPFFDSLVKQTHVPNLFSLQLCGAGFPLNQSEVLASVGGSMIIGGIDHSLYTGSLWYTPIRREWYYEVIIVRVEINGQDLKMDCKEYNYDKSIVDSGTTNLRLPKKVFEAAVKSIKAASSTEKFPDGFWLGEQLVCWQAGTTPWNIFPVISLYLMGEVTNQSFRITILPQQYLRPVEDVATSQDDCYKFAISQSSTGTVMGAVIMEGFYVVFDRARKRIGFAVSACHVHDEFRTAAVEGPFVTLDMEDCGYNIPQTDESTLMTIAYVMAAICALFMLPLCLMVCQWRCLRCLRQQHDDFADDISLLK

Row | Molecule | IC50 [1, 3] [nM] | IC50 [2, 4] [nM] | IC50 [2, 5] [nM] | IC50 [1, 6] [nM] | IC50 ([2]; Homo sapiens, HEK293, bound stated in text, read-out: IC50 value in the BACE cell-based in-vitro assay) [nM] | BACE 1 FRET assay (uM) ([1]; IC50 range symbols, Table 1)
1 | CC(Cc1cc2cc(-c3ccccc3C#N)ccc2nc1N)C(=O)NC1CCOC(C)(C)C1 (stereo not drawn) [Example 142, 3-(2-amino-6-(2-cyanophenyl)-3-quinolinyl)-N-(2,2-dimethyltetrahydro-2H-pyran-4-yl)-2-methylpropanamide] | < 500 | < 500 |  |  |  | 
2 | N-(2-methoxybenzyl)-3-(3-amino-7-o-tolylnaphthalen-2-yl)propanamide [Example 61] | 1000 to 5000 |  | > 5000 |  |  | 
3 | Cc1ccccc1-c1cc2cc(CC(C)C(=O)NCc3ccccc3)c(N)nc2cn1 (stereo not drawn) [Example 136, 3-(2-amino-6-o-tolyl-1,7-naphthyridin-3-yl)-N-benzyl-2-methylpropanamide] | < 500 | 1000 to 5000 |  | < 50 |  | 
4 | Cc1cccnc1-c1ccc2nc(N)c(CC(C)C(=O)NCC3CCOCC3)cc2c1 (stereo not drawn) [Example 88, 3-(2-amino-6-(3-methylpyridin-2-yl)quinolin-3-yl)-2-methyl-N-((tetrahydro-2H-pyran-4-yl)methyl)propanamide] | < 500 | 500 to 1000 |  |  |  | 
5 | COCCNC(=O)CCc1cc2cc(-c3ccccc3C)ccc2nc1N [Example 18, 3-(2-amino-6-o-tolylquinolin-3-yl)-N-(2-methoxyethyl)propanamide] | < 500 | > 5000 |  |  |  | 
6 | Cc1cccnc1-c1ccc2nc(N)c(CCC(=O)N[C@H](C)c3ccccc3OC(F)F)cc2c1 [Example 133, (R)-3-(2-amino-6-(3-methylpyridin-2-yl)quinolin-3-yl)-N-(1-(2-(difluoromethoxy)phenyl)ethyl)propanamide] | 1000 to 5000 | > 5000 |  |  |  | 
7 | Nc1nc2ccc(-c3ccccc3F)cc2cc1CCC(=O)NCC1CCCCC1 [Example 42, 3-(2-amino-6-(2-fluorophenyl)quinolin-3-yl)-N-(cyclohexylmethyl)propanamide] | < 500 | > 5000 |  |  |  | 
8 | COc1ccccc1[C@@H](C)NC(=O)[C@@H](C)Cc1cc2cc(-c3ccccc3C)ccc2nc1N [Example 75, (S)-3-(2-amino-6-o-tolylquinolin-3-yl)-N-((R)-1-(2-methoxyphenyl)ethyl)-2-methylpropanamide] | < 500 | 1000 to 5000 |  |  |  | 
9 | 3-(3-amino-7-o-tolylnaphthalen-2-yl)-N-(1-(2-methoxyphenyl)ethyl)-2-methylpropanamide [Example 70] | < 500 |  | 1000 to 5000 |  |  | 
10 | COC(Cc1cc2cc(-c3ccccc3C)ccc2nc1N)C(=O)NCC1CCCCC1 (stereo not drawn) [Example 71, 3-(2-amino-6-o-tolylquinolin-3-yl)-N-(cyclohexylmethyl)-2-methoxypropanamide] | < 500 | 1000 to 5000 |  |  |  | 
11 | CC(Cc1cc2cc(-c3ccccc3Cl)ccc2nc1N)C(=O)NC1CCOC2(CCC2)C1 (stereo not drawn) [Example 171, 3-(2-amino-6-(2-chlorophenyl)-3-quinolinyl)-2-methyl-N-(5-oxaspiro[3,5]non-8-yl)propanamide] | < 500 | < 500 |  |  |  | 
12 | Cc1ccccc1-c1ccc2nc(N)c(C[C@@H](C)C(=O)NCc3ccncn3)cc2c1 [Example 84, (R)-3-(2-amino-6-o-tolylquinolin-3-yl)-2-methyl-N-(pyrimidin-4-ylmethyl)propanamide] | < 500 | < 500 |  | < 50 |  | 
13 | CNC(=O)C(C)Cc1cc2cc(-c3ccccc3C(=O)C3CCCCC3)ccc2nc1N (stereo not drawn) [Example 157, 3-(2-amino-6-(2-(cyclohexanecarbonyl)phenyl)quinolin-3-yl)-N,2-dimethylpropanamide] | < 500 | 500 to 1000 |  |  |  | 
14 | CC(Cc1cc2cc(-c3ncccc3Cl)ccc2nc1N)C(=O)NC[C@H]1CCCCO1 (stereo partly drawn) [Example 83, 3-(2-amino-6-(3-chloropyridin-2-yl)quinolin-3-yl)-2-methyl-N-(((R)-tetrahydro-2H-pyran-2-yl)methyl)propanamide] | < 500 | 1000 to 5000 |  |  |  | 
15 | Cc1ccc(-c2ccc3nc(N)c(CC(C)C(=O)NCC4CCCCC4)cc3c2)c(F)n1 (stereo not drawn) [Example 107, 3-(2-amino-6-(2-fluoro-6-methylpyridin-3-yl)quinolin-3-yl)-N-(cyclohexylmethyl)-2-methylpropanamide] | 1000 to 5000 | 1000 to 5000 |  |  |  | 
16 | Cc1ccccc1-c1ccc2nc(N)c(CCC(=O)N[C@H](C)c3cccnc3)cc2c1 [Example 78, 3-(2-amino-6-o-tolylquinolin-3-yl)-N-((R)-1-(pyridin-3-yl)ethyl)propanamide] | 1000 to 5000 |  | > 5000 |  |  | 
17 | Cc1ccccc1-c1ccc2nc(N)c(CCC(=O)NC3CCCN(C)C3)cc2c1 (stereo not drawn) [Example 39, 3-(2-amino-6-o-tolylquinolin-3-yl)-N-(1-methylpiperidin-3-yl)propanamide] | 1000 to 5000 | 1000 to 5000 |  |  |  | 
18 | COc1ccccc1[C@@H](C)NC(=O)C(C)Cc1cc2cc(-c3ccccc3C)ccc2nc1N (stereo partly drawn) [Example 129, 3-(2-amino-6-o-tolylquinolin-3-yl)-N-((R)-1-(2-methoxyphenyl)ethyl)-2-methylpropanamide] | < 500 |  | 1000 to 5000 |  |  | 
19 | Cc1cccc(C(=O)N2CCCC2)c1-c1ccc2nc(N)c(CC(C)C(=O)NC3CC3)cc2c1 (stereo not drawn) [Example 150, 3-(2-amino-6-(2-methyl-6-(pyrrolidine-1-carbonyl)phenyl)quinolin-3-yl)-N-cyclopropyl-2-methylpropanamide] | < 500 | < 500 |  |  |  | 
20 | Cc1ccccc1-c1ccc2nc(N)c(C[C@@H](C)C(=O)NC3C[C@@H](C)O[C@@H](C)C3)cc2c1 (stereo partly drawn) [Example 12, (2R)-3-(2-amino-6-o-tolylquinolin-3-yl)-N-(cis-2,6-dimethyltetrahydro-2H-pyran-4-yl)-2-methylpropanamide] | < 500 | < 500 |  | < 50 | < 100 | 
21 | Cc1ccccc1-c1ccc2nc(N)c(CC(C)C(=O)NCC3CCOC3)cc2c1 (stereo not drawn) [Example 91, 3-(2-amino-6-o-tolylquinolin-3-yl)-2-methyl-N-((tetrahydrofuran-3-yl)methyl)propanamide] | < 500 | 1000 to 5000 |  |  |  | 
22 | CC(Cc1cc2cc(-c3ncccc3CCN3CCOCC3)ccc2nc1N)C(=O)NCCC(C)(C)C (stereo not drawn) [Example 123, 3-(2-amino-6-(3-(2-morpholinoethyl)pyridin-2-yl)quinolin-3-yl)-N-(3,3-dimethylbutyl)-2-methylpropanamide] | < 500 | < 500 |  |  |  | 
23 | Cc1ccccc1-c1cc2cc(CCC(=O)NCC3CCCCC3)c(N)nc2cc1F [Example 96, 3-(2-amino-7-fluoro-6-(2-methylphenyl)-3-quinolinyl)-N-(cyclohexylmethyl)propanamide] | < 500 | 1000 to 5000 |  | < 50 |  | 
24 | N-(3-fluoro-3-methylbutyl)-2-methyl-3-(6-(3-methylpyridin-2-yl)quinolin-3-yl)propanamide [Example 101] | < 500 |  | < 500 |  |  | 
25 | CC(Cc1cc2cc(-c3ncccc3Cl)ccc2nc1N)C(=O)NC[C@@H]1CCCCO1 (stereo partly drawn) [Example 82, 3-(2-amino-6-(3-chloropyridin-2-yl)quinolin-3-yl)-2-methyl-N-(((S)-tetrahydro-2H-pyran-2-yl)methyl)propanamide] | 500 to 1000 | 1000 to 5000 |  |  |  | 
26 | Nc1nc2ccc(-c3cccnc3)cc2cc1CCC(=O)NCC1CCCCC1 [Example 34, 3-(2-amino-6-(pyridin-3-yl)quinolin-3-yl)-N-(cyclohexylmethyl)propanamide] |  | 1000 to 5000 |  |  |  | _++
